The term IC50 denotes the concentration that gives 50% inhibition. Higher therefore signals a need for much substance. As usually defined, the stoichiometry N is a count of units in the complex or per binding partner.

Substitutions are numbered along the chain they refer to. In names and notes the source's numbering stands.

Results on 3 molecules are retold here after publication PMC10167348, “Structural mechanisms of TRPM7 activation and inhibition” (Nature Communications, 2023).

Data set [1] has as its target T1, TRPM7-W1111A (Mus musculus, UniProt Q923J1, W1111A).
T1 construct: expressed in transfected cells; host or cells: HEK 293T
Briefly: Aequorin-based Ca2+ influx assay, inhibition of TRPM7-mediated Ca2+ influx. Conditions: antagonist, mean ± SEM. The class given is cell-based. Here is the method:
(§1) Measurements of [Ca^2+]i were performed as reported previously with several modifications[2],[52],[54]. HEK 293T cells (mycoplasma test negative, ATCC #CRL3216) were maintained at 37 °C and 5% CO2 in DMEM supplemented with 10% fetal calf serum, 100 µg/ml streptomycin and 100 U/ml penicillin (all from Thermo Fisher Scientific). Cells cultured in six-well plates (~60% confluence) were transfected with 2 µg/dish Trpm7 plasmid DNA and 0.1 µg/dish pG5A plasmid DNA encoding eGFP fused to Aequorea victoria aequorin, using Lipofectamine 2000 (Thermo Fisher Scientific). Twenty-four hours after transfection, the cells were washed with Mg^2+-free HEPES-buffered saline (Mg^2+-free HBS) containing 140 mM NaCl, 6 mM KCl, 0.5 mM CaCl2, 10 mM HEPES (pH 7.4) and 5 mM glucose, and mechanically resuspended in the Mg^2+-free HBS. For reconstitution of aequorin, cell suspensions were incubated with 5 µM coelenterazine (Biaffin GmbH) in the Mg^2+-free HBS for 30 min at room temperature. Cells were washed twice by centrifugation at 600 rpm for 5 min (Heraeus Pico 17 microcentrifuge, Thermo Fisher Scientific), resuspended in the Mg^2+-free HBS and aliquoted into 96-well plates (1 × 10^5 cells per well). Luminescence was detected at room temperature using a FLUOstar OPTIMA microplate reader (BMG LABTECH GmbH). To monitor the NS8593- and VER155008-induced inhibition of TRPM7-mediated Ca^2+ influx, the extracellular concentration of Ca^2+ was increased to 5 mM by injecting the CaCl2-containing Mg^2+-free HBS in the absence or presence of the inhibitors. […] To study activation by naltriben, TRPM7-transfected cells were exposed to Mg^2+-free HBS containing different concentrations of the agonist. The experiments were terminated by lysing cells with 0.1% (v/v) Triton X-100 in the Mg^2+-free HBS to record the total bioluminescence. The bioluminescence rates (counts/s) were analyzed at 1-s intervals and calibrated as [Ca^2+]i values using the following equation:1 p[Ca^2+]i=0.332588(−log(k))+5.5593 where k represents the rate of aequorin consumption, i.e., counts/s divided by the total number of counts.
(§2) To determine the IC50 values for NS8593 and VER155008 (EC50 for naltriben), the data were fitted with the following logistic equation:2 Ec=Emin+Emax+Emin/1+c^h/IC50^h where E(c) is the functional effect at the concentration c of the compound, Emin is the minimal effect, Emax is the maximal effect, IC50 (EC50) is the concentration of the compound that produces the half-maximal effect, and h is the Hill coefficient. Fitting of dose-response curves was performed using GraphPad Prism 8.4.0. Data are presented as the mean ± SEM.

Data set [2] deals with T2, TRPM7-A981V (Mus musculus, UniProt Q923J1, A981V).
T2 construct: expressed in transfected cells; host or cells: HEK 293T
T2 sequence (Q923J1 whole entry A981V): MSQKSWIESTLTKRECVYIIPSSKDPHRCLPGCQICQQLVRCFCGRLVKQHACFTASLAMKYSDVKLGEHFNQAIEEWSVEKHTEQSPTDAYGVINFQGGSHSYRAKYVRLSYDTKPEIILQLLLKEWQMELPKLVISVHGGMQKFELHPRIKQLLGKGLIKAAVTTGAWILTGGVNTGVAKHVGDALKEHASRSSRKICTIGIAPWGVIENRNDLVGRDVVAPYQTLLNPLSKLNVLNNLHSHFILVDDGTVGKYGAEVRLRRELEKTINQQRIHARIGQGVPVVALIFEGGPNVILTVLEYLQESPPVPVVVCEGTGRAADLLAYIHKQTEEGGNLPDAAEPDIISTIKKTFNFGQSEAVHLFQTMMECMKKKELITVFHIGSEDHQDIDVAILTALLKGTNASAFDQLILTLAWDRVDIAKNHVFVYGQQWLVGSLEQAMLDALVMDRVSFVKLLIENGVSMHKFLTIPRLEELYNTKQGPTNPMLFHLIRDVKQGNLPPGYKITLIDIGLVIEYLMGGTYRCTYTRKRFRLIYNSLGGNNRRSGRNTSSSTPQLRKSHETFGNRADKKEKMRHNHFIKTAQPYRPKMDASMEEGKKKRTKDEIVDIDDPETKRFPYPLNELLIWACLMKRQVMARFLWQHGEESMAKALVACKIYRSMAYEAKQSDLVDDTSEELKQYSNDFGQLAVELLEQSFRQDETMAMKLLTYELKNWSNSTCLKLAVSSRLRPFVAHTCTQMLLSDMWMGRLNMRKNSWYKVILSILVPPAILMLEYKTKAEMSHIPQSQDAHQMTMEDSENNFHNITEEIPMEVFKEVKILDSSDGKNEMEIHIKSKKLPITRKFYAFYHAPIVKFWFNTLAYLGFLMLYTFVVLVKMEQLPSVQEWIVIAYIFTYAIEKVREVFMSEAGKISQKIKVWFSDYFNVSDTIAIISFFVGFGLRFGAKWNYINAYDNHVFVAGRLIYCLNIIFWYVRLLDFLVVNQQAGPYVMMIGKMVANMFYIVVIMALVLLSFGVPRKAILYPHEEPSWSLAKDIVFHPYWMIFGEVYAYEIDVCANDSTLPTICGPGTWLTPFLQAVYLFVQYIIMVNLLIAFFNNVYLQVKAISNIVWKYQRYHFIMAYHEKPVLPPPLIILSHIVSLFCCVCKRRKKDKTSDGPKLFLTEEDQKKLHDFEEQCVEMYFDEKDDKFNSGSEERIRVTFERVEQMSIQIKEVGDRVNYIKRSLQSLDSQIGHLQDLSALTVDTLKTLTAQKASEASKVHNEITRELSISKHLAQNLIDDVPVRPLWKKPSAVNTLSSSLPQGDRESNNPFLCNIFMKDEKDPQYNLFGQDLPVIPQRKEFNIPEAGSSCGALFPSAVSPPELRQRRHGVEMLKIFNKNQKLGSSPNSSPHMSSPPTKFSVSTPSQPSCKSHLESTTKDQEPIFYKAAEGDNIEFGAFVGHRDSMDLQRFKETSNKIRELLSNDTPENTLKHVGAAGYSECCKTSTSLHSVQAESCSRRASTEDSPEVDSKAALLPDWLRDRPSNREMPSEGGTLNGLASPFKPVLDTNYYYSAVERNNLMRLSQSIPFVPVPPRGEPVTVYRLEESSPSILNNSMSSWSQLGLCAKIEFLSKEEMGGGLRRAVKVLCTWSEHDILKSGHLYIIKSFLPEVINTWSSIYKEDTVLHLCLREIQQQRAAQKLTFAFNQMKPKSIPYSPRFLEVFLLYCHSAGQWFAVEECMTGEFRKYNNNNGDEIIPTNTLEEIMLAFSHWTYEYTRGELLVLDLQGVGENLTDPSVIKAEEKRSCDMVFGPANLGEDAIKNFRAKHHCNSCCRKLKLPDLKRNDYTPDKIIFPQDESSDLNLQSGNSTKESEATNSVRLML
The description is as above. Conditions: antagonist, mean ± SEM. It is filed as cell-based. As to the method: as §1, §2

For data set [3], the target named is T3, TRPM7-M991A (Mus musculus, UniProt Q923J1, M991A).
T3 construct: expressed in transfected cells; host or cells: HEK 293T
T3 sequence (Q923J1 whole entry M991A): as the sequence (Q923J1 whole entry A981V) above, with V981A, M991A counted along it
The description is as above. To be noted: for sensitivity of the mutant to the inhibitor: TRPM7-M991A. It is filed as cell-based. As to the method: as §1, §2

Data set [4] has as its target T4, TRPM7-A981L (Mus musculus, UniProt Q923J1, A981L).
T4 construct: expressed in transfected cells; host or cells: HEK 293T
The data set is described as above. Conditions: antagonist, mean ± SEM. The class given is cell-based. Here is the method: as §1, §2

Data set [5] has as its target T5, TRPM7 WT (Mus musculus, UniProt Q923J1).
T5 construct: expressed in transfected cells; host or cells: HEK 293T
Described as above. It is filed as cell-based. To be noted: antagonist, mean ± SEM. Here is the method:
as §1, §2

In data set [6] the target is T6, TRPM7-N1098Q (Mus musculus, UniProt Q923J1, N1098Q).
T6 construct: expressed in transfected cells; host or cells: HEK 293T
T6 sequence (Q923J1 whole entry N1098Q): as the sequence (Q923J1 whole entry A981V) above, with V981A, N1098Q counted along it
Described as above. The class given is cell-based. Conditions: N1098Q, antagonist, mean ± SEM. As to the method:
as §1, §2

Data set [7] deals with T7, wild-type TRPM7 (Mus musculus, UniProt Q923J1).
T7 construct: expressed in transfected cells; host or cells: HEK 293T
T7 sequence (Q923J1 whole entry): as the sequence (Q923J1 whole entry A981V) above, with V981A counted along it
Briefly: Whole-cell patch-clamp recordings in HEK 293T cells. The class given is cell-based. Conditions: 10 µM inhibitor, 450-s exposure, amplitude at +80 mV. As to the method: Patch-clamp experiments were performed as reported previously, with a few modifications[69],[70]. HEK 293T cells grown in 35-mm dishes to ~60% confluence were transiently transfected with Trpm7 cDNAs in the pIRES2-EGFP vector (2 µg/dish). Patch-clamp experiments were conducted 18–22 h after transfection with cells displaying EGFP fluorescence. Whole-cell currents were recorded using an EPC10 patch-clamp amplifier and PatchMaster software (Version V2x69, Harvard Bioscience). Voltages were corrected for a liquid junction potential of 10 mV. Currents were elicited by voltage ramps from –100 mV to +100 mV over 50 ms acquired at 0.5 Hz. The inward and outward current amplitudes were measured at –80 mV and +80 mV and were normalized to the cell size as pA/pF. The capacitance was measured using the automated capacitance cancellation function of EPC10. The standard extracellular solution contained 140 mM NaCl, 2.8 mM KCl, 1 mM CaCl2, 2 mM MgCl2, 10 mM HEPES-NaOH, and 11 mM glucose (all from Sigma-Aldrich). Solutions were adjusted to pH 7.2 using an FE20 pH meter (Mettler Toledo) and to 290 mOsm using a Vapro 5520 osmometer (Wescor Inc). […] For the experiment with naltriben, the intracellular solution contained 120 mM Cs-glutamate, 8 mM NaCl, 10 mM Cs-EGTA, 1.5 mM MgCl2, and 10 mM HEPES-CsOH. The intracellular solution was also adjusted to pH 7.2 and 290 mOsm. Data are presented as the mean ± SEM Unless indicated otherwise, data were compared by unpaired t-test (GraphPad Prism 8.4.0). For multiple comparisons, ordinary one-way ANOVA (GraphPad Prism 8.4.0) was used. Significance was accepted at P ≤ 0.05.

Data set [8] deals with the molecule itself. Briefly: cryo-EM structure; single-particle cryo-EM of purified TRPM7 in GDN or in MSP2N2 lipid nanodiscs (POPC:POPE:POPG), 150 mM NaCl, 20 mM Tris pH 8.0; apo or with naltriben, VER155008 or NS8593; final refinement with C4 symmetry.

T5 sequence (Q923J1 whole entry): as the sequence (Q923J1 whole entry A981V) above, with V981A counted along it
T1 sequence (Q923J1 whole entry W1111A): as the sequence (Q923J1 whole entry A981V) above, with V981A, W1111A counted along it
T4 sequence (Q923J1 whole entry A981L): as the sequence (Q923J1 whole entry A981V) above, with V981L counted along it

Turning to `N#Cc1ccc(COC[C@H]2O[C@@H](n3c(NCc4ccc(Cl)c(Cl)c4)nc4c(N)ncnc43)[C@H](O)[C@@H]2O)cc1` [VER155008], the half-inhibitory concentration (IC50) was roughly 10 µM in data set [1]; “not feasible to calculate the IC50 value” in data set [2]; “not feasible to calculate the IC50 value” in data set [3] (M991A, antagonist, no added second inhibitor, mean ± SEM); roughly 25 µM in data set [4]; 0.23 ± 0.03 µM in data set [5]; 1.71 ± 0.25 µM in data set [6]. Further, the “sensitivity of the mutant to the inhibitor” value in data set [3] (0.1-10 μM VER155008 (response to reviewers)) was “no sensitivity”; in data set [3] (1–10 µM VER), “not sensitive”. The Hill coefficient result is recorded as “–2.07 ± 0.41” in data set [5] and “–1.32 ± 0.20” in data set [6]. For the same molecule, the “amplitude of TRPM7-mediated currents in the presence of inhibitor” value in data set [7] is reported as “greatly reduced”.

B1: C-terminally truncated mouse TRPM7 (residues 1–1280), wild type (natural protein, UniProt Q923J1 1-1280, looked up)
chain: MSQKSWIESTLTKRECVYIIPSSKDPHRCLPGCQICQQLVRCFCGRLVKQHACFTASLAMKYSDVKLGEHFNQAIEEWSVEKHTEQSPTDAYGVINFQGGSHSYRAKYVRLSYDTKPEIILQLLLKEWQMELPKLVISVHGGMQKFELHPRIKQLLGKGLIKAAVTTGAWILTGGVNTGVAKHVGDALKEHASRSSRKICTIGIAPWGVIENRNDLVGRDVVAPYQTLLNPLSKLNVLNNLHSHFILVDDGTVGKYGAEVRLRRELEKTINQQRIHARIGQGVPVVALIFEGGPNVILTVLEYLQESPPVPVVVCEGTGRAADLLAYIHKQTEEGGNLPDAAEPDIISTIKKTFNFGQSEAVHLFQTMMECMKKKELITVFHIGSEDHQDIDVAILTALLKGTNASAFDQLILTLAWDRVDIAKNHVFVYGQQWLVGSLEQAMLDALVMDRVSFVKLLIENGVSMHKFLTIPRLEELYNTKQGPTNPMLFHLIRDVKQGNLPPGYKITLIDIGLVIEYLMGGTYRCTYTRKRFRLIYNSLGGNNRRSGRNTSSSTPQLRKSHETFGNRADKKEKMRHNHFIKTAQPYRPKMDASMEEGKKKRTKDEIVDIDDPETKRFPYPLNELLIWACLMKRQVMARFLWQHGEESMAKALVACKIYRSMAYEAKQSDLVDDTSEELKQYSNDFGQLAVELLEQSFRQDETMAMKLLTYELKNWSNSTCLKLAVSSRLRPFVAHTCTQMLLSDMWMGRLNMRKNSWYKVILSILVPPAILMLEYKTKAEMSHIPQSQDAHQMTMEDSENNFHNITEEIPMEVFKEVKILDSSDGKNEMEIHIKSKKLPITRKFYAFYHAPIVKFWFNTLAYLGFLMLYTFVVLVKMEQLPSVQEWIVIAYIFTYAIEKVREVFMSEAGKISQKIKVWFSDYFNVSDTIAIISFFVGFGLRFGAKWNYINAYDNHVFVAGRLIYCLNIIFWYVRLLDFLAVNQQAGPYVMMIGKMVANMFYIVVIMALVLLSFGVPRKAILYPHEEPSWSLAKDIVFHPYWMIFGEVYAYEIDVCANDSTLPTICGPGTWLTPFLQAVYLFVQYIIMVNLLIAFFNNVYLQVKAISNIVWKYQRYHFIMAYHEKPVLPPPLIILSHIVSLFCCVCKRRKKDKTSDGPKLFLTEEDQKKLHDFEEQCVEMYFDEKDDKFNSGSEERIRVTFERVEQMSIQIKEVGDRVNYIKRSLQSLDSQIGHLQDLSALTVDTLKTLTAQKASEASKVHNEITRELSISKHLAQNLID
notes: mouse TRPM7 (Trpm7 cDNA NM_021450), truncated C-terminally, protein residues 1–1280; lacks the kinase domain; A thrombin cleavage site (LVPRG) stands between GFP and TRPM7; the purification as described has no thrombin step; also called TRPM7_(Closed); TRPM7_(NTB-open); source: HEK 293S GnTI- cells, baculovirus-transduced (pEG-BacMam), purified (strep resin, SEC); in GDN or reconstituted in …
With B1, the “stoichiometry N” value in data set [8] was 4.

B2: C-terminally truncated mouse TRPM7 (residues 1–1280) with the gain-of-function mutation N1098Q (natural protein, UniProt Q923J1 1-1280, looked up)
chain: B1 chain with N1098Q
notes: mouse TRPM7 (Trpm7 cDNA NM_021450), truncated C-terminally, protein residues 1–1280, with N1098Q; Same construct as m1 with the point mutation; a thrombin cleavage site (LVPRG) stands between GFP and TRPM7, no thrombin step is described; also called TRPM7-N1098Q; TRPM7-N1098Q_(open); source: HEK 293S GnTI- cells, baculovirus-transduced (pEG-BacMam), purified (strep resin, SEC); in GDN
With B2, the binding result in data set [8] is listed as “binds”.
